The source of these data is US20080286235A1, “Antimicrobials and related methods” (priority 2006, published 2008).

Molecules are shown by their SMILES. Converted amounts (≈) assume the structure as drawn.

The subject of series [1] is C3H/10T1/2 mouse embryo fibroblasts. Conditions: for Highest Non-Cytotoxic Concentration: mouse; for LC50 value (reduces the plating efficiency to 50% of control cells) / CC50: 10T1/2 cells; for CC50: read-out: LC50 value.
The nature of the next series: in vitro. Particulars: mouse.
The test system of a further series is ringworm. In words: Cat ringworm treatment. In kind it is in vivo, kittens. Particulars: Solution A 1:16 topically three times daily for three days.

For the molecule `CC(=O)Nc1ccc(O)cc1` [Acetaminophen], in series [1], the “Highest Non-Cytotoxic Concentration” value came out at 0.05 mg/mL. Further, the CC50 in the series “in vitro” amounted to 500 µg/mL (≈ 3310 µM).

As to `CC(=O)Oc1ccccc1C(=O)O` [Aspirin], in series [1], the “Highest Non-Cytotoxic Concentration” value was determined as 0.25 mg/mL.

For the molecule `OC1c2cc3ccc4cccc5ccc(c2C2OC2C1O)c3c45` (stereo not drawn) [BaP-anti-diol epoxide], in series [1], the “LC50 value (reduces the plating efficiency to 50% of control cells)” value was 0.0755 µg/mL and the CC50 amounted to 0.25 µM.

As for `COC(=O)Nc1nc2cc(C(=O)c3ccc(F)cc3)ccc2[nH]1` [Flubendazole], the CC50 in “in vitro” was determined as 0.15 µg/mL (≈ 0.479 µM).

Regarding `COC1=CC(=O)C[C@@H](C)[C@]12Oc1c(Cl)c(OC)cc(OC)c1C2=O` [Griseofulvin], in the series with ringworm, the “outcome of ringworm treatment” value is “no success”.

`CC(=O)ON(C(C)=O)c1ccc2c(c1)Cc1ccccc1-2` [N-acetoxy-acetyl aminofluorene]: in series [1], the “LC50 value (reduces the plating efficiency to 50% of control cells)” value amounted to 3.99 µg/mL and the CC50 turned out to be 15 µM.

As to `C[C@@H]1O[C@@H](O[C@H]2C[C@@H](O)[C@]3(CO)[C@H]4[C@H](O)C[C@]5(C)[C@@H](C6=CC(=O)OC6)CC[C@]5(O)[C@@H]4CC[C@]3(O)C2)[C@H](O)[C@H](O)[C@H]1O` [Ouabain], in the series “in vitro”, the CC50 came out at 500 µg/mL (≈ 855 µM).

With `CCOc1ccc(NC(C)=O)cc1` [Phenacetin], the “Highest Non-Cytotoxic Concentration” value in series [1] was 0.18 mg/mL. In addition, the CC50 in the series “in vitro” stood at 1000 µg/mL (≈ 5580 µM).
